Data: BindingDB's records for doi:10.1021/jm0494669 (Italy. Vinc, 2004)

Target: RNA-directed RNA polymerase (Hepacivirus hominis, UniProt Q8JXU8)
Experiment: Inhibitory concentration required to inhibit HCV RNA dependent RNA polymerase Nonstructural protein 5B is determined

Chain of RNA-directed RNA polymerase (Q8JXU8 whole entry): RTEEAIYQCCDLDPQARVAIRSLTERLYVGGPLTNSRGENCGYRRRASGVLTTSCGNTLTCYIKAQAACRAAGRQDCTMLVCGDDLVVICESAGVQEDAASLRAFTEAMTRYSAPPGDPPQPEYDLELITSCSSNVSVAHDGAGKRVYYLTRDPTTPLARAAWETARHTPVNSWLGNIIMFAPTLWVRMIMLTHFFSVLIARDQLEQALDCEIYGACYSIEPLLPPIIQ

Compound O=C(O)C(=O)CC(=O)c1ccccc1 has an IC50 of 5.7 µM.
